We go through 11 compounds from the OPERA property sets (Mansouri et al. 2018).

For `CNCC1CCC2(NC)c3ccccc3CC2C1` (stereo unspecified), the logP (as a rule, a log measure of how a compound divides between an organic and an aqueous phase) is 2.48.

`NC12CCCC1Cc1ccccc12` (stereo unspecified) returned a logP of 2.58.

On to `CCNC12c3ccccc3CC1CCCC2C` (stereo unspecified), for which the logP was found to be 3.8.

Compound `C=C1c2ccccc2C2(NC)CCCCC12` (stereo unspecified) displayed a logP of 3.79.

In turn, `CNC12CCCCC1Cc1ccc(OC)cc12` (stereo unspecified) registered a lipophilicity (logP) of 3.54.

As to `CNC12CCCCCC1Cc1ccccc12` (stereo unspecified), the logP worked out at 3.77.

`CNC12CCCCC1Cc1ccccc12` (stereo unspecified) came in with a logP of 3.38.

Compound `CNC12CCC(CN)CC1Cc1ccccc12` (stereo unspecified) returned a logP of 1.84.

On to `CNC12CCCCC1Cc1cc(OC)ccc12` (stereo unspecified), for which the logP came out at 3.51.

In turn, `CNC12c3ccccc3CC1CCCC2C` (stereo unspecified) displayed a logP of 3.44.

`CNC12CCCCC1c1ccccc1C2` (stereo unspecified) yielded a logP of 3.43.
